Columns and labels:
Assay type in all cases: functional
T47D [1] = test: Cytotoxicity against Homo sapiens (human) T47D assessed as cell growth at 10 uM after 48 hr by SRB assay relative to control; conditions: read-out: Activity
786-0 = test: Cytotoxicity against Homo sapiens (human) 786-0 assessed as cell growth at 10 uM after 48 hr by SRB assay relative to control; conditions: 786-0, 48 h, read-out: Activity
UO-31 = test: Cytotoxicity against Homo sapiens (human) UO31 assessed as cell growth at 10 uM after 48 hr by SRB assay relative to control; conditions: UO-31, 48 h, read-out: Activity
UACC-257 = test: Cytotoxicity against Homo sapiens (human) UACC257 assessed as cell growth at 10 uM after 48 hr by SRB assay relative to control; conditions: UACC-257, 48 h, read-out: Activity
SNB-75 = test: Cytotoxicity against Homo sapiens (human) SNB75 assessed as cell growth at 10 uM after 48 hr by SRB assay relative to control; conditions: SNB-75, 48 h, read-out: Activity
NCI-H23 [2] = test: Cytotoxicity against Homo sapiens (human) NCI-H23 assessed as cell growth at 10 uM after 48 hr by SRB assay relative to control; conditions: NCI-H23, 48 h, read-out: Activity
Malme-3M = test: Cytotoxicity against Homo sapiens (human) MALME-3M assessed as cell growth at 10 uM after 48 hr by SRB assay relative to control; conditions: read-out: Activity
MDA-MB-231 = test: Cytotoxicity against Homo sapiens (human) MDA-MB-231 assessed as cell growth at 10 uM after 48 hr by SRB assay relative to control; conditions: MDA-MB-231, 48 h, read-out: Activity
HOP-62 = test: Cytotoxicity against Homo sapiens (human) HOP62 assessed as cell growth at 10 uM after 48 hr by SRB assay relative to control; conditions: HOP-62, 48 h, read-out: Activity
KM12 = test: Cytotoxicity against Homo sapiens (human) KM12 assessed as cell growth at 10 uM after 48 hr by SRB assay relative to control; conditions: KM12, 48 h, read-out: Activity
MCF7 = test: Cytotoxicity against Homo sapiens (human) MCF7 assessed as cell growth at 10 uM after 48 hr by SRB assay relative to control; conditions: MCF7, 48 h, read-out: Activity
U-251 [3] = test: Cytotoxicity against Homo sapiens (human) U251 assessed as cell growth at 10 uM after 48 hr by SRB assay relative to control; conditions: U-251, 48 h, read-out: Activity
COLO 205 [4] = test: Cytotoxicity against Homo sapiens (human) COLO205 assessed as cell growth at 10 uM after 48 hr by SRB assay relative to control; conditions: COLO 205, 48 h, read-out: Activity
Hs-578T = test: Cytotoxicity against Homo sapiens (human) Hs 578T assessed as cell growth at 10 uM after 48 hr by SRB assay relative to control; conditions: read-out: Activity
HCT-15 = test: Cytotoxicity against Homo sapiens (human) HCT15 assessed as cell growth at 10 uM after 48 hr by SRB assay relative to control; conditions: HCT-15, 48 h, read-out: Activity
SN12C = test: Cytotoxicity against Homo sapiens (human) SN12C assessed as cell growth at 10 uM after 48 hr by SRB assay relative to control; conditions: read-out: Activity
SR = test: Cytotoxicity against Homo sapiens (human) SR assessed as cell growth at 10 uM after 48 hr by SRB assay relative to control; conditions: read-out: Activity
HCC 2998 = test: Cytotoxicity against Homo sapiens (human) HCC2998 assessed as cell growth at 10 uM after 48 hr by SRB assay relative to control; conditions: HCC 2998, 48 h, read-out: Activity
LOX IMVI [5] = test: Cytotoxicity against Homo sapiens (human) LOXIMVI assessed as cell growth at 10 uM after 48 hr by SRB assay relative to control; conditions: read-out: Activity
HOP-92 = test: Cytotoxicity against Homo sapiens (human) HOP92 assessed as cell growth at 10 uM after 48 hr by SRB assay relative to control; conditions: HOP-92, 48 h, read-out: Activity
SF-295 = test: Cytotoxicity against Homo sapiens (human) SF295 assessed as cell growth at 10 uM after 48 hr by SRB assay relative to control; conditions: SF-295, 48 h, read-out: Activity
NCI-H522 = test: Cytotoxicity against Homo sapiens (human) NCI-H522 assessed as cell growth at 10 uM after 48 hr by SRB assay relative to control; conditions: NCI-H522, 48 h, read-out: Activity
U-251 [6] = test: Cytotoxicity against Homo sapiens (human) U251 cells after 48 hr by SRB assay; conditions: U-251, 48 h
UACC-62 = test: Cytotoxicity against Homo sapiens (human) UACC62 cells after 48 hr by SRB assay; conditions: UACC-62, 48 h
COLO 205 [7] = test: Cytotoxicity against Homo sapiens (human) COLO205 cells after 48 hr by SRB assay; conditions: COLO 205, 48 h
HT-29 = test: Cytotoxicity against Homo sapiens (human) HT-29 cells after 48 hr by SRB assay; conditions: HT-29, 48 h
NCI-H23 [8] = test: Cytotoxicity against Homo sapiens (human) NCI-H23 cells after 48 hr by SRB assay; conditions: NCI-H23, 48 h
SK-MEL-2 = test: Cytotoxicity against Homo sapiens (human) SK-MEL-2 cells after 48 hr by SRB assay; conditions: SK-MEL-2, 48 h
MOLT-4 = test: Cytotoxicity against Homo sapiens (human) MOLT4 cells after 48 hr by SRB assay; conditions: MOLT-4, 48 h
LOX IMVI [9] = test: Cytotoxicity against Homo sapiens (human) LOXIMVI cells after 48 hr by SRB assay
T47D [10] = test: Cytotoxicity against Homo sapiens (human) T47D cells after 48 hr by SRB assay
PC-3 = test: Cytotoxicity against Homo sapiens (human) PC3 cells after 48 hr by SRB assay; conditions: PC-3, 48 h
A498 = test: Cytotoxicity against Homo sapiens (human) A498 cells after 48 hr by SRB assay; conditions: A498, 48 h
NCI-H322M = test: Cytotoxicity against Homo sapiens (human) NCI-H322M assessed as cell growth at 10 uM after 48 hr by SRB assay relative to control; conditions: read-out: Activity
[11] = read-out: LC50 (the source's name)

Question: With CC(=O)Oc1c(C2=NN(C(C)=O)C(c3ccccc3[N+](=O)[O-])O2)sc2nnc(-c3ccccc3)c(-c3ccccc3)c12 (stereo unspecified) as the molecule, how does the growth at 10 µM (T47D [1]) read?
Answer: 97.5%

Question: What about the growth at 10 µM (786-0) of the same molecule?
Answer: 102%

Question: What about the growth at 10 µM (UO-31) of the same molecule?
Answer: 78.9%

Question: And the growth at 10 µM (UACC-257)?
Answer: 101%

Question: What about the growth at 10 µM (SNB-75) of the same molecule?
Answer: 76.3%

Question: What about the growth at 10 µM (NCI-H23 [2]) of the same molecule?
Answer: 101%

Question: What about the growth at 10 µM (Malme-3M) of the same molecule?
Answer: 93.2%

Question: And the growth at 10 µM (MDA-MB-231)?
Answer: 89.6%

Question: What about the growth at 10 µM (HOP-62) of the same molecule?
Answer: 109%

Question: And the growth at 10 µM (KM12)?
Answer: 108%

Question: And the growth at 10 µM (MCF7)?
Answer: 64%

Question: What about the growth at 10 µM (U-251 [3]) of the same molecule?
Answer: 80.5%

Question: What about the growth at 10 µM (COLO 205 [4]) of the same molecule?
Answer: 108%

Question: And the growth at 10 µM (Hs-578T)?
Answer: 114%

Question: And the growth at 10 µM (HCT-15)?
Answer: 78%

Question: What about the growth at 10 µM (SN12C) of the same molecule?
Answer: 76.3%

Question: And the growth at 10 µM (SR)?
Answer: 49%

Question: What about the growth at 10 µM (HCC 2998) of the same molecule?
Answer: 120%

Question: What about the growth at 10 µM (LOX IMVI [5]) of the same molecule?
Answer: 105%

Question: And the growth at 10 µM (HOP-92)?
Answer: 72.3%

Question: And the growth at 10 µM (SF-295)?
Answer: 85%

Question: What about the growth at 10 µM (NCI-H522) of the same molecule?
Answer: 92%

Question: How did the GI50 (U-251 [6]) turn out when Oc1c(-c2nnc(-c3ccc(Cl)cc3)o2)sc2nnc(-c3ccccc3)c(-c3ccccc3)c12 was run?
Answer: 3.55 µM

Question: And the TGI (U-251 [6])?
Answer: 18.3 µM

Question: And the CC50 (U-251 [6]; [11])?
Answer: 0.0183 µM

Question: What about the growth at 10 µM (T47D [1]) of the same molecule?
Answer: 53%

Question: What about the GI50 (UACC-62) of the same molecule?
Answer: 3.77 µM

Question: And the TGI (UACC-62)?
Answer: 6.61 µM

Question: And the growth at 10 µM (786-0)?
Answer: 61.1%

Question: And the growth at 10 µM (UACC-257)?
Answer: 85%

Question: And the GI50 (COLO 205 [7])?
Answer: 4.7 µM

Question: What about the TGI (COLO 205 [7]) of the same molecule?
Answer: 18.3 µM

Question: And the CC50 (COLO 205 [7]; [11])?
Answer: 0.0183 µM

Question: What about the growth at 10 µM (SNB-75) of the same molecule?
Answer: 62.8%

Question: What about the growth at 10 µM (NCI-H23 [2]) of the same molecule?
Answer: 56.5%

Question: And the growth at 10 µM (MDA-MB-231)?
Answer: 77.9%

Question: What about the GI50 (HT-29) of the same molecule?
Answer: 4.56 µM

Question: And the TGI (HT-29)?
Answer: 9.1 µM

Question: And the CC50 (HT-29; [11])?
Answer: 0.0183 µM

Question: And the growth at 10 µM (HOP-62)?
Answer: 51.2%

Question: And the growth at 10 µM (KM12)?
Answer: 39.2%

Question: And the GI50 (NCI-H23 [8])?
Answer: 4.94 µM

Question: And the TGI (NCI-H23 [8])?
Answer: 18.3 µM

Question: What about the growth at 10 µM (MCF7) of the same molecule?
Answer: 33.5%

Question: And the growth at 10 µM (U-251 [3])?
Answer: 32.6%

Question: And the growth at 10 µM (COLO 205 [4])?
Answer: 67.4%

Question: And the growth at 10 µM (Hs-578T)?
Answer: 62.4%

Question: And the GI50 (SK-MEL-2)?
Answer: 4.13 µM

Question: And the TGI (SK-MEL-2)?
Answer: 8.23 µM

Question: What about the growth at 10 µM (HCT-15) of the same molecule?
Answer: 32%

Question: What about the GI50 (MOLT-4) of the same molecule?
Answer: 4.47 µM

Question: And the TGI (MOLT-4)?
Answer: 18.3 µM

Question: What about the CC50 (MOLT-4; [11]) of the same molecule?
Answer: 0.0183 µM

Question: What about the GI50 (LOX IMVI [9]) of the same molecule?
Answer: 3.73 µM

Question: And the TGI (LOX IMVI [9])?
Answer: 9.47 µM

Question: And the CC50 (LOX IMVI [9]; [11])?
Answer: 0.0183 µM

Question: What about the growth at 10 µM (SR) of the same molecule?
Answer: 35.1%

Question: And the growth at 10 µM (HCC 2998)?
Answer: 54.7%

Question: And the growth at 10 µM (LOX IMVI [5])?
Answer: 28.1%

Question: What about the GI50 (T47D [10]) of the same molecule?
Answer: 4.89 µM

Question: And the TGI (T47D [10])?
Answer: 18.3 µM

Question: And the growth at 10 µM (HOP-92)?
Answer: 54.5%

Question: And the GI50 (PC-3)?
Answer: 4.09 µM

Question: What about the TGI (PC-3) of the same molecule?
Answer: 18.3 µM

Question: And the CC50 (PC-3; [11])?
Answer: 0.0183 µM

Question: What about the GI50 (A498) of the same molecule?
Answer: 5.92 µM

Question: And the TGI (A498)?
Answer: 12.5 µM

Question: What about the CC50 (A498; [11]) of the same molecule?
Answer: 0.0183 µM

Question: And the growth at 10 µM (SF-295)?
Answer: 23.5%

Question: What about the growth at 10 µM (NCI-H522) of the same molecule?
Answer: 75.1%

Question: What does the source list for CC(=O)Oc1c(C2=NN(C(C)=O)C(c3ccc(F)cc3)O2)sc2nnc(-c3ccccc3)c(-c3ccccc3)c12 (stereo unspecified)?
Answer: growth at 10 µM (T47D [1]): 90%; growth at 10 µM (786-0): 94.7%; growth at 10 µM (UO-31): 83.3%; growth at 10 µM (UACC-257): 113%; growth at 10 µM (SNB-75): 78.1%; growth at 10 µM (NCI-H23 [2]): 103%; growth at 10 µM (MDA-MB-231): 85.9%; growth at 10 µM (HOP-62): 121%; growth at 10 µM (KM12): 81.7%; growth at 10 µM (MCF7): 73.7%; growth at 10 µM (U-251 [3]): 105%; growth at 10 µM (COLO 205 [4]): 117%; growth at 10 µM (Hs-578T): 120%; growth at 10 µM (HCT-15): 61.1%; growth at 10 µM (SN12C): 80.2%; growth at 10 µM (SR): 79.3%; growth at 10 µM (HCC 2998): 82.8%; growth at 10 µM (LOX IMVI [5]): 99%; growth at 10 µM (NCI-H322M): 85.7%; growth at 10 µM (HOP-92): 46.2%; growth at 10 µM (NCI-H522): 80.4%

— ChEMBL document CHEMBL3045770, “Design and synthesis of some thieno[2,3-c]pyridazine derivatives of expected anticancer activity” (2013)
